Publication PMC3806475, “Marine Derived Hamacanthins as Lead for the Development of Novel PDGFRβ Protein Kinase Inhibitors” (Marine Drugs, 2013)

Columns and labels:
[1] = target: VEGF-R3 (Homo sapiens, UniProt P35916); assay: 33PanQinase protein kinase activity assay; format: biochemical; settings: recombinant kinase, 1 µM ATP
Source text: (§1) Recombinant protein kinases.

[2] = target: SAK (Homo sapiens, UniProt O00444); assay: 33PanQinase protein kinase activity assay; format: biochemical; settings: recombinant kinase, 1 µM ATP
Source text: as §1

[3] = target: ERBB2 (Homo sapiens, UniProt P04626); assay: 33PanQinase protein kinase activity assay; format: biochemical; settings: recombinant kinase, 1 µM ATP
Source text: as §1

[4] = target: B-RAF-VE (Homo sapiens, UniProt P15056, V600E); assay: 33PanQinase protein kinase activity assay; format: biochemical; settings: recombinant kinase, 1 µM ATP
Source text: as §1

[5] = target: CK2a1 (Homo sapiens, UniProt P68400); assay: 33PanQinase protein kinase activity assay; format: biochemical; settings: recombinant kinase, 1 µM ATP
Source text: as §1

[6] = target: COT (Homo sapiens, UniProt P41279); assay: 33PanQinase protein kinase activity assay; format: biochemical; settings: recombinant kinase, 1 µM ATP
Source text: as §1

[7] = target: PLK1 (Homo sapiens, UniProt P53350); assay: 33PanQinase protein kinase activity assay; format: biochemical; settings: recombinant kinase, 1 µM ATP
Source text: as §1

[8] = target: FLT3 (Homo sapiens, UniProt P36888); assay: 33PanQinase protein kinase activity assay; format: biochemical; settings: recombinant kinase, 1 µM ATP
Source text: as §1

[9] = target: MET (Homo sapiens, UniProt P08581); assay: 33PanQinase protein kinase activity assay; format: biochemical; settings: recombinant kinase, 1 µM ATP
Source text: as §1

[10] = target: Aurora-B (Homo sapiens, UniProt Q96GD4); assay: 33PanQinase protein kinase activity assay; format: biochemical; settings: recombinant kinase, 1 µM ATP
[11] = target: CDK2/CycA (Homo sapiens, UniProt P24941); assay: 33PanQinase protein kinase activity assay; format: biochemical; settings: recombinant kinase, 1 µM ATP
[12] = target: CDK4/CycD1 (Homo sapiens, UniProt P11802); assay: 33PanQinase protein kinase activity assay; format: biochemical; settings: recombinant kinase, 1 µM ATP
[13] = target: SRC (Homo sapiens, UniProt P12931); assay: 33PanQinase protein kinase activity assay; format: biochemical; settings: recombinant kinase, 1 µM ATP
[14] = target: AKT1 (Homo sapiens, UniProt P31749); assay: 33PanQinase protein kinase activity assay; format: biochemical; settings: recombinant kinase, 1 µM ATP
[15] = target: EGFR (Homo sapiens, UniProt P00533); assay: biochemical
[16] = target: VEGF-R2 (Homo sapiens, UniProt P35968); assay: 33PanQinase protein kinase activity assay; format: biochemical; settings: recombinant kinase, 1 µM ATP
Source text: as §1

[17] = target: Aurora-A (Homo sapiens, UniProt O14965); assay: 33PanQinase protein kinase activity assay; format: biochemical; settings: recombinant kinase, 1 µM ATP
[18] = target: INSR (Homo sapiens, UniProt P06213); assay: 33PanQinase protein kinase activity assay; format: biochemical; settings: recombinant kinase, 1 µM ATP
[19] = target: TIE2 (Homo sapiens, UniProt Q02763); assay: 33PanQinase protein kinase activity assay; format: biochemical; settings: recombinant kinase, 1 µM ATP
[20] = target: IGF1R (Homo sapiens, UniProt P08069); assay: 33PanQinase protein kinase activity assay; format: biochemical; settings: recombinant kinase, 1 µM ATP
[21] = test system: TK 10, 786-0, M 14, and MCF-7 cell lines; assay: Cell viability assay (CellTiter-Glo), other cell lines; format: cell-based; settings: TK 10, 786-0, M 14, MCF-7; 48 h; compared with HL-60
Method: In order to determine the cytotoxic profiles of compounds 5 and 8, they were evaluated in cell viability assays (Figure 7) including HL-60, a human myeloblastic leukemia cell line, as it has been shown that the proliferation and differentiation of these cells depend upon PDGFR-signalling. Cells were treated with compounds 5 and 8 and after 48 h incubation, their viability was determined. […] This is in line with the notion that HL-60 cells depend on PDGFR-signaling.
The cells were grown in RPMI 1640 Glutamax with 10% FCS, 100 µg/mL streptomycin and 100 U/mL Penicillin G and incubated in a 5% CO2 humidified atmosphere at 37 °C. For proliferation experiments, cells were seeded in 20 µL pro well into 384-well Greiner 384 CellStar® plates (Greiner Bio-One I. AG, Kremsmünster, AT). In addition to the test plates, one plate was prepared for the reference measurement at day zero. All plates were incubated for 24 h at 37 °C in a humidified atmosphere with 5% CO2. […] The viability of the cells in the day zero control plates were determined on the same day without adding any compounds. […] The luminescence signal was measured at the EnSpire® Multimode Plate Reader (PerkinElmer, Waltham, MA, USA). […] Measured raw data were converted into percent of cell growth by using the high control (0.5% DMSO v/v without compound) and the day zero control. […]

[22] = target: PDGFRβ (Homo sapiens, UniProt P09619); assay: 33PanQinase protein kinase activity assay; format: biochemical; settings: recombinant kinase, 1 µM ATP
[23] = target: ARK5 (Homo sapiens, UniProt O60285); assay: 33PanQinase protein kinase activity assay; format: biochemical; settings: recombinant kinase, 1 µM ATP
[24] = target: FAK (Homo sapiens, UniProt Q05397); assay: 33PanQinase protein kinase activity assay; format: biochemical; settings: recombinant kinase, 1 µM ATP
[25] = target: EPHB4 (Homo sapiens, UniProt P54760); assay: 33PanQinase protein kinase activity assay; format: biochemical; settings: recombinant kinase, 1 µM ATP
[26] = test system: HL-60 cells; assay: Cell viability assay (CellTiter-Glo); format: cell-based; settings: Homo sapiens, 48 h incubation
[27] = test system: bacterial methicillin-resistant Staphylococcus (MRSA-PK); design: method as in PMID 22030393; settings: cited from earlier work

Chain of PDGFRβ (P09619 33-1106): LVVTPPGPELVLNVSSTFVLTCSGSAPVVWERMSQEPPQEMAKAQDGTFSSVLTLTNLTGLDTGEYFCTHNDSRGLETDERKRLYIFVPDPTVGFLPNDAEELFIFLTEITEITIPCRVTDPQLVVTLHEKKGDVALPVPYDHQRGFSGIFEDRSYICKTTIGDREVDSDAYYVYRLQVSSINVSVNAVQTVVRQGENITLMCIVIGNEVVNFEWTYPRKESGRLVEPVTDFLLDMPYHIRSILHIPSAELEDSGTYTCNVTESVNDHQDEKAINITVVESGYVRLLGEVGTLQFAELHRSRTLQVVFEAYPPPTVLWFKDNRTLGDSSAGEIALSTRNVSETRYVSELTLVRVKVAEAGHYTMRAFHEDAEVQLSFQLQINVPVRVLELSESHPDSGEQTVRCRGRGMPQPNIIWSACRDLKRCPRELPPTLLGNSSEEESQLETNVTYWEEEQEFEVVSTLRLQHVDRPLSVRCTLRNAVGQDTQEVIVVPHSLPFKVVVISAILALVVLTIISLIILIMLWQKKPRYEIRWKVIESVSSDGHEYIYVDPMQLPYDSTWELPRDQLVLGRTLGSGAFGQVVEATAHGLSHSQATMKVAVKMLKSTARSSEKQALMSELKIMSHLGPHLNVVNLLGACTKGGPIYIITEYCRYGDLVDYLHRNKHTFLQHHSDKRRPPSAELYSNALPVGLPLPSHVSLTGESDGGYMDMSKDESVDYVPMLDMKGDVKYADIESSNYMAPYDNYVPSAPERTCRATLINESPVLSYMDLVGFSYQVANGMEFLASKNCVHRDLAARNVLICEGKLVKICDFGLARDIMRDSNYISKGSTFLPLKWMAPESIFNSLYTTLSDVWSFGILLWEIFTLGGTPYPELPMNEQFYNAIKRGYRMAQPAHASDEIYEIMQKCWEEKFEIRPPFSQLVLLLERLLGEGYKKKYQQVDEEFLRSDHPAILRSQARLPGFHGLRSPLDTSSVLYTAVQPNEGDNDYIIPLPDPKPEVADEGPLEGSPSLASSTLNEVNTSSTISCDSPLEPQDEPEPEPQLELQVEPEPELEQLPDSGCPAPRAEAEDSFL
Chain of VEGF-R3 (P35916 25-1363): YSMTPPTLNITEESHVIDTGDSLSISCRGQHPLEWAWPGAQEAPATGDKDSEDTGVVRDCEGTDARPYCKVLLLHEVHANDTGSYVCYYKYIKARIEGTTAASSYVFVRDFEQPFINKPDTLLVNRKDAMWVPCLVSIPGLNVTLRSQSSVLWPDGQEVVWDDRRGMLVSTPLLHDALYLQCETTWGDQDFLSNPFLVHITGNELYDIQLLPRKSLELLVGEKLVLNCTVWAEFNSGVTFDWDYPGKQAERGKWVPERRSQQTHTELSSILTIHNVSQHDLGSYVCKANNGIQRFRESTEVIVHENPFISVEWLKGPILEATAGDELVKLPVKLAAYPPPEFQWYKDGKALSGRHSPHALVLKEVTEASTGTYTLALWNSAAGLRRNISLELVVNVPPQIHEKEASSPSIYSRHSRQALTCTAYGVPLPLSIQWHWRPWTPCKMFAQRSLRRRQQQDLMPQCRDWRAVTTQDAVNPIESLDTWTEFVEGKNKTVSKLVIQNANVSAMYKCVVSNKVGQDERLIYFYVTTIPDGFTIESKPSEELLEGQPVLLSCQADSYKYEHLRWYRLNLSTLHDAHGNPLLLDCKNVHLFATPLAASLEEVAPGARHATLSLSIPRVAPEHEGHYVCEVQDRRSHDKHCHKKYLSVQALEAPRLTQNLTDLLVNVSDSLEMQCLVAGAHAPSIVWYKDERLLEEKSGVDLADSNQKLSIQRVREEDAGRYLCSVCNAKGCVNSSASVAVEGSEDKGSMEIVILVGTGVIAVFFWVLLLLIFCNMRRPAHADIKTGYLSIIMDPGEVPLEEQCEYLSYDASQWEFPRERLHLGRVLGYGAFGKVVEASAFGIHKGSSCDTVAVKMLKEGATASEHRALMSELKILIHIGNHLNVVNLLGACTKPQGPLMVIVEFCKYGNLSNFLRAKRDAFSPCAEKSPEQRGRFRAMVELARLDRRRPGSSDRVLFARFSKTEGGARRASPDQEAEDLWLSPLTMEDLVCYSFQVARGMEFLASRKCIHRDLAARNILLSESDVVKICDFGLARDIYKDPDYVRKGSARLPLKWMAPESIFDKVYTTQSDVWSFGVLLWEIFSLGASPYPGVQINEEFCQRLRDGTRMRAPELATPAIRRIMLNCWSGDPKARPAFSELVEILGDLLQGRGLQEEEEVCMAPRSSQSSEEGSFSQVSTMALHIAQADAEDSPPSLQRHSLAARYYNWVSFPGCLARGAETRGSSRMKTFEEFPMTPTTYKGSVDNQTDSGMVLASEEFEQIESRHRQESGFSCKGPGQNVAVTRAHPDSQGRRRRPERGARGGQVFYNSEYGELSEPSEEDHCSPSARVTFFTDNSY
Chain of COT (P41279 whole entry): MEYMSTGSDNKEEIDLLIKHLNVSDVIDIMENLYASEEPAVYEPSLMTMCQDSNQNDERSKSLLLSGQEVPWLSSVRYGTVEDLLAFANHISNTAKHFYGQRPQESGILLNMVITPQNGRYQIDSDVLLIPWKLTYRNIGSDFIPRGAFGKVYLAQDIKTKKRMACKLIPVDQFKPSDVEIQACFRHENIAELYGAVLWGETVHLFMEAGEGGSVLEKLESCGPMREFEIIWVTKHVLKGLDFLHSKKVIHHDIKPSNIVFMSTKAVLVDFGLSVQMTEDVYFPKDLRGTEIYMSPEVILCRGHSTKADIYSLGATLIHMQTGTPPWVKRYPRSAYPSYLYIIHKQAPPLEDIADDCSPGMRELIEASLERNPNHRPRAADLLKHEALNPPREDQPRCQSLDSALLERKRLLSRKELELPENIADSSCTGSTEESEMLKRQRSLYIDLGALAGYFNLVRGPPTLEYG
Chain of FLT3 (P36888 27-993): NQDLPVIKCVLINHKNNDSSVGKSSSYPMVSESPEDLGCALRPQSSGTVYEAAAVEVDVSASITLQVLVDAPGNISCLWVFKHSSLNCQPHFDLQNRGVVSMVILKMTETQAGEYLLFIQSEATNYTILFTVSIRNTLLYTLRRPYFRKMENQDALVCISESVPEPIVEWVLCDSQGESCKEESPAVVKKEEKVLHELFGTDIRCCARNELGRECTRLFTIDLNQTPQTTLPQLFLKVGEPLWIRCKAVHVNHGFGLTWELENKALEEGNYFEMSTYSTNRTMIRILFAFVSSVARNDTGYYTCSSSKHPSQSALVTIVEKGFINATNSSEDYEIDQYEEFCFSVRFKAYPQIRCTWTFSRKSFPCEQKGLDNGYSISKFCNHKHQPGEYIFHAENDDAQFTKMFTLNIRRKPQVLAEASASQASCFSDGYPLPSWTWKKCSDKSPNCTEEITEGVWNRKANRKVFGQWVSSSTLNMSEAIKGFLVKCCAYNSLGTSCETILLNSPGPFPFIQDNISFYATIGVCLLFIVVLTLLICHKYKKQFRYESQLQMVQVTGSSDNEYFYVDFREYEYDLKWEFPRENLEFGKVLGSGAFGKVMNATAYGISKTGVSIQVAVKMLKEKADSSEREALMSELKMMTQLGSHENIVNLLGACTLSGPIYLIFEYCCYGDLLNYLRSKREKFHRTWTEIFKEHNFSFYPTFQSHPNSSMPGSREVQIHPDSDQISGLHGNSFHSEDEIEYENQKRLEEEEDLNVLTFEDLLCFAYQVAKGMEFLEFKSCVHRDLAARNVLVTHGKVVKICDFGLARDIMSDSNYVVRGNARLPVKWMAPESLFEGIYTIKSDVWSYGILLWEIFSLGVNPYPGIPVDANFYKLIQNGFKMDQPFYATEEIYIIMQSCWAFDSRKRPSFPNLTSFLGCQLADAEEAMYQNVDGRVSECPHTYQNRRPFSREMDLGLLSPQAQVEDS
Chain of PLK1 (P53350 whole entry): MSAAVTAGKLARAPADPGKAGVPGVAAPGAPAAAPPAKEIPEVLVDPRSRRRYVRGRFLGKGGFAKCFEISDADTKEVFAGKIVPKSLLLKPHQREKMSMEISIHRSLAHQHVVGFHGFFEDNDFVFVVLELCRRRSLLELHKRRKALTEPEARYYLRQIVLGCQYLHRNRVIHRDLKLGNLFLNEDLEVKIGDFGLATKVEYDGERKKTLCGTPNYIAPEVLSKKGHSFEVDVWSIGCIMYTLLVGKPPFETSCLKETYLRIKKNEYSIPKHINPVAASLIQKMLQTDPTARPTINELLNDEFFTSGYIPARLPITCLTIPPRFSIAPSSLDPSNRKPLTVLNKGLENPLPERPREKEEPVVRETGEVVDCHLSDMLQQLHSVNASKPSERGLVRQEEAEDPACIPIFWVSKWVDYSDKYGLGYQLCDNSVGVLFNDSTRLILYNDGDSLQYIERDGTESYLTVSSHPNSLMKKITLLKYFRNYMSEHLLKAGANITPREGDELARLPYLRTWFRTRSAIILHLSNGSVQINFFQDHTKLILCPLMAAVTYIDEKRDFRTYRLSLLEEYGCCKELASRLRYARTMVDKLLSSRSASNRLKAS
Chain of Aurora-B (Q96GD4 whole entry): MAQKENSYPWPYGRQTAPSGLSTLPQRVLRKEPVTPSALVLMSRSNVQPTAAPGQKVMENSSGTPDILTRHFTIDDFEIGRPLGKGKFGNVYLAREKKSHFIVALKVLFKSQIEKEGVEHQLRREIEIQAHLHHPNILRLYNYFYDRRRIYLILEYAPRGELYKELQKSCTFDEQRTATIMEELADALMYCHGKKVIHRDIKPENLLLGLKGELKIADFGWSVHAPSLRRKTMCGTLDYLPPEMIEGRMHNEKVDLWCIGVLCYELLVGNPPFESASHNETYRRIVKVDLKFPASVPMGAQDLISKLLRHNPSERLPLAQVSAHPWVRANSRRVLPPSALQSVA

| IC50 [22] [µM] | Molecule | IC50 [1] [µM] | IC50 [2] [µM] | IC50 [3] [µM] | IC50 [4] [µM] | IC50 [5] [µM] | IC50 [6] [µM] | IC50 [7] [µM] | IC50 [8] [µM] | IC50 [9] [µM] | IC50 [10] [µM] | cytotoxic effect on the other cells tested [21] | further results |
| --- | --- | --- | --- | --- | --- | --- | --- | --- | --- | --- | --- | --- | --- |
| – | 3-(indole-3-yl)-4-(3,4,5-trimethoxyphenyl)-1H-pyrrole-2,5-dione [Compound 1, reference compound] | 0.037 | 10 | 51 | > 100 | > 100 | 32 | > 100 | 61 | 60 | 66 | – | IC50 [11]: 66 µM; IC50 [12]: 56 µM |
| 0.5 | COc1cc(-c2nc(-c3c[nH]c4ccccc34)c[nH]c2=O)cc(OC)c1OC [Compound 5, 5-(1H-indole-3-yl)-3-(3,4,5-trimethoxyphenyl)pyrazin-2(1H)-one] | 5 | > 100 | > 100 | > 100 | > 100 | > 100 | > 100 | 36 | > 100 | > 100 | significantly less affected | IC50 [13]: > 100 µM; IC50 [14]: > 100 µM; IC50 [15]: > 100 µM; IC50 (µM) VEGF-R3 [1]: low µM range; IC50 [16]: 4 µM; IC50 [17]: > 100 µM; IC50 [18]: > 100 µM; IC50 [19]: > 100 µM; IC50 [20]: > 100 µM; IC50 [23]: > 100 µM; IC50 [24]: > 100 µM; IC50 [25]: > 100 µM |
| 1.5 | COc1ccc(-c2nc(-c3c[nH]c4ccccc34)c[nH]c2=O)cc1OC [Compound 6, 3-(3,4-dimethoxyphenyl)-5-(1H-indol-3-yl)-1H-pyrazin-2-one] | – | – | – | – | – | – | – | – | – | – | – | – |
| 19 | COc1ccc(-c2nc(-c3c[nH]c4ccccc34)c[nH]c2=O)cc1 [Compound 7, 3-(4-methoxyphenyl)-5-(1H-indol-3-yl)-1H-pyrazin-2-one] | – | – | – | – | – | – | – | – | – | – | – | – |
| 0.3 | COc1cc(-c2nc(-c3c[nH]c4ccc(O)cc34)c[nH]c2=O)cc(OC)c1OC [Compound 8, 5-(5-hydroxy-1H-indole-3-yl)-3-(3,4,5-trimethoxyphenyl)pyrazin-2(1H)-one] | – | – | – | – | – | – | – | – | – | – | significantly less affected | IC50 [26]: 30 µM |
| – | O=C1NC[C@@H](c2c[nH]c3cc(Br)ccc23)N[C@H]1c1c[nH]c2cc(Br)ccc12 [cis-3,4-dihydro hamacanthin B] | – | – | – | – | – | – | – | – | – | – | – | IC50 [27]: 0.016 µM |
